# Results taken from US12479850B2, “Compound having Axl and c-Met kinase inhibitory activity, preparation thereof and application thereof” (Shanghai Institute of Materia Medica, Chinese Academy of …, priority 2019, dated 2025).
# Target: c-Met kinase domain recombinant protein (Homo sapiens, UniProt P08581)
# Assay: ELISA kinase activity assay, c-Met
# Chain of c-Met kinase domain recombinant protein (P08581 1078-1345 limits assumed): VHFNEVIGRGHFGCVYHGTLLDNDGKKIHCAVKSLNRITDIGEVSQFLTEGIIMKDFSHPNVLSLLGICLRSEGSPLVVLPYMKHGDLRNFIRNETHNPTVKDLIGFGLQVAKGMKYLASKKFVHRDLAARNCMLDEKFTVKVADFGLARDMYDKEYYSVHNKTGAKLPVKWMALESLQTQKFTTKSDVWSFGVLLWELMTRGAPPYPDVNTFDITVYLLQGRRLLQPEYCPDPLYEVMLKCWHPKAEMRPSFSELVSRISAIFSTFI
row,IC50 [nM],Compound
1,10 to 100,"Cn1cc(-c2cc(Oc3ccc(NC(=O)c4cn(CCO)c(=O)n(-c5ccc(F)cc5)c4=O)cc3F)ccn2)cn1 [No. 9, N-(3-fluoro-4-((2-(1-methyl-1H-pyrazol-4-yl)pyridin-4-yl)oxy)phenyl)-3-(4-fluorophenyl)-1-(2-hydroxyethyl)-2,4-dioxo-1,2,3,4-tetrahydropyrimidin-5-carboxamide]"
2,< 10,"C=CCn1cc(C(=O)Nc2ccc(Oc3ccnc(-c4cnn(C)c4)c3)c(F)c2)c(=O)n(-c2ccc(F)cc2)c1=O [No. 7, 1-allyl-N-(3-fluoro-4-((2-(1-methyl-1H-pyrazol-4-yl)pyridin-4-yl)oxy)phenyl)-3-(4-fluorophenyl)-2,4-dioxo-1,2,3,4-tetrahydropyrimidin-5-carboxamide]"
3,< 10,"COCCn1cc(C(=O)Nc2ccc(Oc3ccnc(-c4cnn(C)c4)c3)c(F)c2)c(=O)n(-c2ccc(F)cc2)c1=O [No. 10, N-(3-fluoro-4-((2-(1-methyl-1H-pyrazol-4-yl)pyridin-4-yl)oxy)phenyl)-3-(4-fluorophenyl)-1-(2-methoxyethyl)-2,4-dioxo-1,2,3,4-tetrahydropyrimidin-5-carboxamide]"
4,10 to 100,"CC(C)n1cc(C(=O)Nc2ccc(Oc3ccnc(-c4cnn(C)c4)c3)c(F)c2F)c(=O)n(-c2ccc(F)cc2)c1=O [No. 27, N-(2,3-difluoro-4-((2-(1-methyl-1H-pyrazol-4-yl)pyridin-4-yl)oxy)phenyl)-3-(4-fluorophenyl)-1-isopropyl-2,4-dioxo-1,2,3,4-tetrahydropyrimidin-5-carboxamide]"
5,< 10,"CC(C)n1cc(C(=O)Nc2cc(F)c(Oc3ccnc(-c4cnn(C)c4)c3)cc2F)c(=O)n(-c2ccc(F)cc2)c1=O [No. 29, N-(2,5-difluoro-4-((2-(1-methyl-1H-pyrazol-4-yl)pyridin-4-yl)oxy)phenyl)-3-(4-fluorophenyl)-1-isopropyl-2,4-dioxo-1,2,3,4-tetrahydropyrimidin-5-carboxamide]"
6,< 10,"CC(C)n1cc(C(=O)Nc2ccc(Oc3ccnc(-c4cnn(C)c4)c3)c(F)c2)c(=O)n(-c2ccc(F)cc2)c1=O [No. 3, N-(3-fluoro-4-((2-(1-methyl-1H-pyrazol-4-yl)pyridin-4-yl)oxy)phenyl)-3-(4-fluorophenyl)-1-isopropyl-2,4-dioxo-1,2,3,4-tetrahydropyrimidin-5-carboxamide]"
7,> 100,"Cn1cc(-c2cnccc2Oc2ccc(NC(=O)c3cn(C)c(=O)n(-c4ccc(F)cc4)c3=O)cc2)cn1 [No. 53, 3-(4-fluorophenyl)-1-methyl-N-(4-((3-(1-methyl-1H-pyrazol-4-yl)pyridin-4-yl)oxy)phenyl)-2,4-dioxo-1,2,3,4-tetrahydropyrimidin-5-carboxamide]"

# The next lines start with the molecule.
row,Compound,IC50 [nM]
1,"CC(C)n1cc(C(=O)Nc2ccc(Oc3ccnc(-c4cnn(CC(C)(C)O)c4)c3)c(F)c2)c(=O)n(-c2ccc(F)cc2)c1=O [No. 32, N-(3-fluoro-4-((2-(1-(2-hydroxy-2-methylpropyl)-1H-pyrazol-4-yl)pyridin-4-yl)oxy)phenyl)-3-(4-fluorophenyl)-1-isopropyl-2,4-dioxo-1,2,3,4-tetrahydropyrimidin-5-carboxamide]",10 to 100
2,"CC(C)n1cc(C(=O)Nc2ccc(Oc3ccnc(-c4cnn(CCN5CCN(C)CC5)c4)c3)c(F)c2)c(=O)n(-c2ccc(F)cc2)c1=O [No. 34, N-(3-fluoro-4-((2-(1-(2-(4-methylpiperazin-1-yl)ethyl)-1H-pyrazol-4-yl)pyridin-4-yl)oxy)phenyl)-3-(4-fluorophenyl)-1-isopropyl-2,4-dioxo-1,2,3,4-tetrahydropyrimidin-5-carboxamide]",10 to 100
3,"CC(C)n1cc(C(=O)Nc2ccc(Oc3ccnc(-c4cn[nH]c4)c3)c(F)c2)c(=O)n(-c2ccc(F)cc2)c1=O [No. 31, N-(4-((2-(1H-pyrazol-4-yl)pyridin-4-yl)oxy)-3-fluorophenyl)-3-(4-fluorophenyl)-1-isopropyl-2,4-dioxo-1,2,3,4-tetrahydropyrimidin-5-carboxamide]",10 to 100
4,"Cn1cc(-c2cnccc2Oc2ccc(NC(=O)c3cn(CC4CCOCC4)c(=O)n(-c4ccc(F)cc4)c3=O)cc2)cn1 [No. 54, 3-(4-fluorophenyl)-N-(4-((3-(1-methyl-1H-pyrazol-4-yl)pyridin-4-yl)oxy)phenyl)-2,4-dioxo-1-((tetrahydro-2H-pyran-4-yl)methyl)-1,2,3,4-tetrahydropyrimidin-5-carboxamide]",10 to 100
5,"CC(C)n1cc(C(=O)Nc2cc(F)c(Oc3ccnc(-c4cnn(C)c4)c3)c(F)c2)c(=O)n(-c2ccc(F)cc2)c1=O [No. 28, N-(3,5-difluoro-4-((2-(1-methyl-1H-pyrazol-4-yl)pyridin-4-yl)oxy)phenyl)-3-(4-fluorophenyl)-1-isopropyl-2,4-dioxo-1,2,3,4-tetrahydropyrimidin-5-carboxamide]",< 10
6,"CC(C)n1cc(C(=O)Nc2ccc(Oc3ccncc3-c3cnn(C)c3)cc2)c(=O)n(-c2ccc(F)cc2)c1=O [No. 36, 3-(4-fluorophenyl)-1-isopropyl-N-(4-((3-(1-methyl-1H-pyrazol-4-yl)pyridin-4-yl)oxy)phenyl)-2,4-dioxo-1,2,3,4-tetrahydropyrimidin-5-carboxamide]",10 to 100
7,"CCn1cc(C(=O)Nc2ccc(Oc3ccncc3-c3cnn(C)c3)cc2)c(=O)n(-c2ccc(F)cc2)c1=O [No. 52, 3-(4-fluorophenyl)-1-ethyl-N-(4-((3-(1-methyl-1H-pyrazol-4-yl)pyridin-4-yl)oxy)phenyl)-2,4-dioxo-1,2,3,4-tetrahydropyrimidin-5-carboxamide]",10 to 100
8,"CC(C)n1cc(C(=O)Nc2ccc(Oc3ccnc(-c4cnn(C)c4)c3)cc2F)c(=O)n(-c2ccc(F)cc2)c1=O [No. 26, N-(2-fluoro-4-((2-(1-methyl-1H-pyrazol-4-yl)pyridin-4-yl)oxy)phenyl)-3-(4-fluorophenyl)-1-isopropyl-2,4-dioxo-1,2,3,4-tetrahydropyrimidin-5-carboxamide]",< 10
9,"CC(C)n1cc(C(=O)Nc2ccc(Oc3ccnc(-c4cnn(C5CC5)c4)c3)c(F)c2)c(=O)n(-c2ccc(F)cc2)c1=O [No. 33, N-(4-((2-(1-cyclopropyl-1H-pyrazol-4-yl)pyridin-4-yl)oxy)-3-fluorophenyl)-3-(4-fluorophenyl)-1-isopropyl-2,4-dioxo-1,2,3,4-tetrahydropyrimidin-5-carboxamide]",10 to 100
10,"Cc1nn(C)cc1-c1cc(Oc2ccc(NC(=O)c3cn(C(C)C)c(=O)n(-c4ccc(F)cc4)c3=O)cc2F)ccn1 [No. 35, N-(4-((2-(1,3-dimethyl-1H-pyrazol-4-yl)pyridin-4-yl)oxy)-3-fluorophenyl)-3-(4-fluorophenyl)-1-isopropyl-2,4-dioxo-1,2,3,4-tetrahydropyrimidin-5-carboxamide]",10 to 100
11,"CC(C)n1cc(C(=O)Nc2ccc(Oc3ccnc(-c4cnn(C)c4)c3)cc2)c(=O)n(-c2ccc(F)cc2)c1=O [No. 25, 3-(4-fluorophenyl)-1-isopropyl-N-(4-((2-(1-methyl-1H-pyrazol-4-yl)pyridin-4-yl)oxy)phenyl)-2,4-dioxo-1,2,3,4-tetrahydropyrimidin-5-carboxamide]",< 10

# Target: T1, Axl kinase domain recombinant protein (Homo sapiens, UniProt P30530)
# T1 sequence (P30530 536-807 limits assumed): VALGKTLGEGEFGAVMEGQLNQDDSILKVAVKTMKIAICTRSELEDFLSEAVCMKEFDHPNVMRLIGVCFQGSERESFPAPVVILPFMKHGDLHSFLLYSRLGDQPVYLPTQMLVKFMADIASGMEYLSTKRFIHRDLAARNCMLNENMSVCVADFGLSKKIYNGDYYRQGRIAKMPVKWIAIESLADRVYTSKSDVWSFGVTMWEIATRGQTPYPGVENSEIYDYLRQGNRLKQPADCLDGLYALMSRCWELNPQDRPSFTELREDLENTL
# Assay: ELISA kinase activity assay, Axl
row,IC50 [nM],Compound
1,> 100,"Cn1cc(-c2cc(Oc3ccc(NC(=O)c4cn(CCO)c(=O)n(-c5ccc(F)cc5)c4=O)cc3F)ccn2)cn1 [No. 9, N-(3-fluoro-4-((2-(1-methyl-1H-pyrazol-4-yl)pyridin-4-yl)oxy)phenyl)-3-(4-fluorophenyl)-1-(2-hydroxyethyl)-2,4-dioxo-1,2,3,4-tetrahydropyrimidin-5-carboxamide]"
2,< 10,"C=CCn1cc(C(=O)Nc2ccc(Oc3ccnc(-c4cnn(C)c4)c3)c(F)c2)c(=O)n(-c2ccc(F)cc2)c1=O [No. 7, 1-allyl-N-(3-fluoro-4-((2-(1-methyl-1H-pyrazol-4-yl)pyridin-4-yl)oxy)phenyl)-3-(4-fluorophenyl)-2,4-dioxo-1,2,3,4-tetrahydropyrimidin-5-carboxamide]"
3,< 10,"COCCn1cc(C(=O)Nc2ccc(Oc3ccnc(-c4cnn(C)c4)c3)c(F)c2)c(=O)n(-c2ccc(F)cc2)c1=O [No. 10, N-(3-fluoro-4-((2-(1-methyl-1H-pyrazol-4-yl)pyridin-4-yl)oxy)phenyl)-3-(4-fluorophenyl)-1-(2-methoxyethyl)-2,4-dioxo-1,2,3,4-tetrahydropyrimidin-5-carboxamide]"
4,> 100,"COc1cc(NC(=O)c2cn(C(C)C)c(=O)n(-c3ccc(F)cc3)c2=O)ccc1Oc1ccnc(-c2cnn(C)c2)c1 [No. 58, 3-(4-fluorophenyl)-1-isopropyl-N-(3-methoxy-4-((2-(1-methyl-1H-pyrazol-4-yl)pyridin-4-yl)oxy)phenyl)-2,4-dioxo-1,2,3,4-tetrahydropyrimidin-5-carboxamide]"
